Legend:
Type in all cases: in vivo
[1] = test system: Echinochloa crus-galli (ECHCG); assay: Pre-emergence herbicidal action against ECHCG
In short: (§1)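 Application rates ran to 320 g/ha or lower, with several dosages tested on the same weeds. The compound, as wettable powder or emulsion concentrate, is sprayed pre-emergence onto soil over sown seeds; greenhouse growth follows, and effect is rated visually after roughly 3 weeks.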

Lolium rigidum (LOLRI) = assay: Post-emergence herbicidal action against LOLRI
In short: (§2)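 Values are percent visual activity (0% like control, 100% plants dead) after about 3 weeks in the greenhouse. Treatment: post-emergence spray at one-leaf stage, 600 l/ha spray volume, 0.5% additive, doses 320 g/ha or lower.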

[2] = test system: Polygonum convolvulus (POLCO); assay: Post-emergence herbicidal action against POLCO
In short: as §2

[3] = test system: Pharbitis purpurea (PHBPU); assay: Pre-emergence herbicidal action against PHBPU
In short: as §1

SMILES	Pre-emergence action against ECHCG in % ([1]; dosage 80 g/ha)	Pre-emergence action against ECHCG in % ([1]; dosage 320 g/ha)	Post-emergence action against LOLRI in % (Lolium rigidum (LOLRI); dosage 80 g/ha)	Post-emergence action against LOLRI in % (Lolium rigidum (LOLRI); dosage 320 g/ha)	Post-emergence action against POLCO in % ([2]; dosage 80 g/ha)	Post-emergence action against POLCO in % ([2]; dosage 320 g/ha)	Pre-emergence action against PHBPU in % ([3]; dosage 80 g/ha)	Pre-emergence action against PHBPU in % ([3]; dosage 320 g/ha)
C[C@@H](Oc1nn(-c2ncccc2F)c(-c2ccc(F)nc2)c1C1CC1)C(=O)O [Example I-342]	100%	100%	90%	90%	80%	90%	80%	90%
COC(=O)CCOC(=O)[C@@H](C)Oc1nn(-c2ccccn2)c(-c2cncc(F)c2)c1Cl [Example I-196]	90%	90%	90%	90%	80%	80%	90%	90%
COC(=O)[C@@H](C)Oc1nn(-c2nc(F)ccc2F)c(-c2cncc(F)c2)c1Br [Example I-191]	90%	100%	90%	90%			80%	90%
CCOC(=O)[C@@H](C)Oc1nn(-c2ccccn2)c(-c2cncc(F)c2)c1Cl [Example I-184]	90%	100%	90%	90%	80%	80%	80%	90%
COC(=O)C(C)NC(=O)[C@@H](C)Oc1nn(-c2ccccn2)c(-c2cncc(F)c2)c1Cl (stereo partly shown) [Example I-199]	90%	90%	90%	90%			80%	90%
C[C@@H](Oc1nn(-c2ccccn2)c(-c2cncc(F)c2)c1Cl)C(=O)O [Example I-218]	90%	100%	80%	90%		80%	90%	90%
COC(=O)[C@@H](C)Oc1nn(-c2ncccc2F)c(-c2ccc(F)nc2)c1C(F)(F)F [Example I-331]	80%	100%	90%	90%	80%	80%		90%
CCOC(=O)[C@@H](C)Oc1nn(-c2ncccc2F)c(-c2ccc(F)nc2)c1C1CC1 [Example I-375]	80%	100%	90%	90%	80%	90%	80%	90%
COC(=O)[C@@H](C)Oc1nn(-c2ncccc2F)c(-c2ccc(F)nc2)c1C1CC1 [Example I-307]	100%	100%	100%	100%	80%	80%		90%
COC(=O)C(C)COC(=O)[C@@H](C)Oc1nn(-c2ccccn2)c(-c2cncc(F)c2)c1Cl (stereo partly shown) [Example I-198]	90%	100%	80%	80%			80%	90%
CCOC(=O)COc1nn(-c2ccccn2)c(-c2ccc(F)nc2)c1Cl [Example I-85]	100%	100%	100%	100%	90%	90%	90%	100%

— US20240041042A1, “1-(PYRIDYL)-5-AZINYLPYRAZOLE DERIVATIVES, AND THEIR USE FOR CONTROL OF UNDESIRED PLANT GROWTH” (Bayer Aktiengesellschaft, priority 2020, published 2024)
